How the values were obtained:
Atoh1 = assay: qRT-PCR of Atoh1 in adult cochlea after noise damage and drug treatment; assay type: in vivo, mouse; settings: deaf adult cochlea relative to the control, 3 days after treatment, p<0.05
Method: (§1) RNA extraction and PCR. For the LCPs, the organoids were treated with Cell Recovery Solution for at 1 hour and TrypleE for 20 minutes, then frozen in RLT buffer. RNA extractions were performed using the RNeasy Micro Kit (QIAGEN) and cDNA generated using ImProm-II Reverse Transcription Kit (Promega). TaqMan Real-Time PCR was performed in triplicates using the TaqMan Gene Expression Master Mix (ThermoFisher Scientific) on a StepOne Real-Time PCR machine (ThermoFisher Scientific). Ordinary One-way Anova was used to assess statistical significance. A minimum of three biologically distinct samples were analyzed for each condition.
(§2) Round window drug administration. We used four-week-old mice weighing 12-15 g. The animals were anesthetized with ketamine ([…], intraperitoneally [i.p.]) and xylazine ([…], i.p.) prior to surgery. An incision was made posterior to the pinna near the external meatus to expose the otic bulla and subsequently the round window niche. pargyline and CHIR99021 dissolved in DMSO were diluted in polyethylene glycol 400 (Sigma) to obtain final concentrations of 0.1 and 5 mM. This solution (total volume 1 ul) was injected into the round window niche of the left ear. Polyethylene glycol 400 with 10% DMSO was injected into the right ear as a control. Gelfoam was placed on the niche to maintain the solution, and the wound was closed. […]

Hes1 = assay: qRT-PCR of Hes1 in adult cochlea after noise damage and drug treatment; assay type: in vivo, mouse; settings: 3 days after drug treatment of noise-damaged animals
Method: as §1, §2

Axin2 = assay: qRT-PCR of Axin2 in adult cochlea after noise damage and drug treatment; assay type: in vivo, mouse; settings: 3 days after drug treatment of noise-damaged animals, p<0.05
Method: as §1, §2

active β-catenin = assay: Western blot for active β-catenin in differentiating LCPs; assay type: cell-based, mouse; settings: western blot after 4 days of differentiation, relative to untreated control
Method: Western blot analysis. For protein collection, cells were washed twice with PBS and then lysed by lysis buffer (20 mM HEPES, 400 mM NaCl, 1 mM EDTA, 0.1% NP-40 and 10% Glycerol) supplemented with HALT protease and phosphatase inhibitors (Thermo Fisher Scientific, Waltham, MA). Lysates were then centrifuged at 13,000 g for 15 min at 4° C., and each supernatant was collected. Protein concentration was determined using the Pierce BCA Protein Assay Kit (Pierce Biotechnology, Rockford, IL). Proteins within each lysate were separated by SDS-PAGE (Bio-Rad Laboratories, Inc., Hercules, CA) and transferred to polyvinylidene difluoride membranes. After incubation with primary antibody, membranes were washed with Tris-buffered saline with Tween 20 and exposed to an appropriate horseradish peroxidase-conjugated secondary antibody (Santa Cruz Biotechnology, Santa Cruz, CA); immunoblot signals were detected with Pierce ECL Western blotting substrate or ECL plus (Thermo Fisher Scientific, Waltham, MA).
Active canonical Wnt signaling is facilitated by the nuclear translocation of β-catenin, which binds with transcription factors of the Tcf/Lef family to activate transcription. To further validate our RNA-sequencing data, we proceeded to examine the levels of active β-catenin using western blot after pargyline treatment. […] We also analyzed Wnt activity in the treated cells using a Tcf/Lef reporter assay.

[1] = system: Lgr5-expressing cochlear progenitors cells (LCPs); assay: Proliferation of Lgr5+ cochlear progenitors (LCPs) in organoid culture; assay type: cell-based, mouse; settings: first 10 days in culture, Lgr5-nGFP mice cells, combined with CHIR99021
Method: Isolation and expansion of inner ear Lgr5+ cells. A recently published protocol was used to derive organoids from inner ear stem cells [also referred to as Lgr5+ cochlear progenitors (LCPs) (McLean et al., 2017). Briefly, the organ of Corti was dissected from neonatal mice (postnatal days 2-5) in Hank's balanced salt solution and treated with Cell Recovery Solution (Corning) for 1 hour. The cochlear epithelium was then peeled from the underlying mesenchyme, collected and treated with TrypleE for 20 minutes at 37° C. The single cells were mechanically triturated, filtered ([…] cell strainer) and suspended in a Matrigel (Corning) dome for 3D culture. The cells were seeded in a 24-well plate, specifically at one cochlea per well of a 24-well plate.
For the drug screening experiments, the expanded cells were passaged into a 96 well plate to test varying drug combinations. All experiments were done in triplicate at minimum. Atoh1-nGFP cells were quantified after 10 days in culture. The cell colonies were incubated in Cell Recovery Solution for 1 hour and dissociated into single cells using TrypleE. The total cell number and percentage of GFP+ cells were quantified using fluorescence activated cell sorting (FACS).
We screened a collection of Lsd1 inhibitors over the first 10 days in culture (FIGS. 9A and 9B) to examine their effect on proliferation of LCPs (FIGS. 9C and 9D). […]

Row | SMILES | Atoh1 mRNA level (Atoh1) | Hes1 mRNA level (Hes1) | Axin2 mRNA level (Axin2) | active β-catenin, fold change (active β-catenin) | proliferation of Lgr5 cells (LCP cell division) [1]
1 | Cc1c[nH]c(-c2cnc(NCCNc3ccc(C#N)cn3)nc2-c2ccc(Cl)cc2Cl)n1 [CHIR99021] | significantly elevated | reduced levels | significantly higher levels | 2.95 fold | 
2 | CCCC(CCC)C(=O)O [valproic acid] |  |  |  |  | 63%

Reference: patent US20240245702A1, “Inhibition of Lysine Demethylase 1 (Lsd1) Induces Differentiation of Hair Cells” (Massachusetts Eye and Ear Infirmary, priority 2018, published 2024)
